Patent US20250145596A1, “HETEROCYCLIC GLP-1 AGONISTS” (Gasherbrum Bio, Inc., priority 2022, published 2025)

Molecular target: T1, GLP-1 Receptor (Homo sapiens, UniProt P43220)
T1 construct: host or cells: HEK293/CRE-Luc
Assay: GLP-1R agonist cAMP stimulation assay
Type: cell-based
Details: HEK293/CRE-Luc cell line stably expressing the GLP-1 Receptor; 30 min at 37° C.; cAMP dynamic 2 Kit
In short: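 HEK293 cells stably expressing GLP-1R with CRE-luciferase, 1000 cells/well in DPBS with 0.5 mM IBMX and 0.1% BSA, exposed to compound (½-log dilutions) for 30 min at 37 °C. cAMP measured by HTRF (665/615 nm) after 1 h at room temperature; % activity scaled between vehicle and maximal control.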

T1 sequence (P43220 24-463): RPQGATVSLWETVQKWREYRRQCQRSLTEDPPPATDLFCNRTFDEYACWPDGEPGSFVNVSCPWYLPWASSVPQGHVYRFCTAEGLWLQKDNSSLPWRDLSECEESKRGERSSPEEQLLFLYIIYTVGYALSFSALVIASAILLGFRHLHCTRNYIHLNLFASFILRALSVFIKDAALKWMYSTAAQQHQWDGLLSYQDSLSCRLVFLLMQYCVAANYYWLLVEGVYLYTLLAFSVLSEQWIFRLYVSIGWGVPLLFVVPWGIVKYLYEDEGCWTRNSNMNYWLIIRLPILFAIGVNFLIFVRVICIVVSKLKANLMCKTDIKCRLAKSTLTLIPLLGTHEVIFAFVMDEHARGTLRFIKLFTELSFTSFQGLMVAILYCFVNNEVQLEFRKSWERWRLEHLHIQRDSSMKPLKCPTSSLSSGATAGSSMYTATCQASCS

EC50 [nM] | Compound
< 1 | C[C@]1(c2ccc(Cl)cc2F)Oc2cccc(C3CCN(Cc4ncc(/C=C/C(=O)O)cc4CC4(C#N)CC4)CC3)c2O1 [Example 20, (S,E)-3-(6-((4-(2-(4-chloro-2-fluorophenyl)-2-methylbenzo[d][1,3]dioxol-4-yl)piperidin-1-yl)methyl)-5-((1-cyanocyclopropyl)methyl)pyridin-3-yl)acrylic acid]
< 1 | N#CC1(Cc2cc(-c3nnc(C(F)(F)F)[nH]3)cnc2CN2CCC(c3ccc(F)c(OCc4ccc(Cl)c5ccoc45)n3)CC2)CC1 [Example 63, 1-((2-((4-(6-((4-chlorobenzofuran-7-yl)methoxy)-5-fluoropyridin-2-yl)piperidin-1-yl)methyl)-5-(5-(trifluoromethyl)-4H-1,2,4-triazol-3-yl)pyridin-3-yl)methyl)cyclopropane-1-carbonitrile]
1 to 100 | Cc1cc(-c2cn(C)nn2)cnc1CN1CCC(c2cccc3c2OC(C)(c2ccc(Cl)cc2F)O3)CC1 (stereo not drawn) [Example 94]
< 1 | Cc1ccc(C2(C)Oc3cccc(C4CCN(Cc5ncc(-c6nnc(C(F)(F)F)[nH]6)cc5CC5(C#N)CC5)CC4)c3O2)cn1 (stereo not drawn) [Example 11, 1-{[2-({4-[2-Methyl-2-(6-methylpyridin-3-yl)-2H-1,3-benzodioxol-4-yl]piperidin-1-yl}methyl)-5-[5-(trifluoromethyl)-4H-1,2,4-triazol-3-yl]pyridin-3-yl]methyl}cyclopropane-1-carbonitrile]
1 to 100 | CC(c1cc(-c2nnc(C(F)(F)F)[nH]2)cnc1CN1CCC(c2cccc3c2O[C@@](C)(c2ccc(Cl)cc2F)O3)CC1)S(C)(=O)=O (stereo partly drawn) [Example 60, 2-((4-((S)-2-(4-chloro-2-fluorophenyl)-2-methylbenzo[d][1,3]dioxol-4-yl)piperidin-1-yl)methyl)-3-(1-(methylsulfonyl)ethyl)-5-(5-(trifluoromethyl)-4H-1,2,4-triazol-3-yl)pyridine]
1 to 100 | N#CC1(Cc2cc(-c3nnc(C(F)(F)F)[nH]3)cnc2CN2CCC(c3nc(OCc4ccc(Cl)cc4F)ncc3F)CC2)CC1 [Example 35, 1-({2-[(4-{2-[(4-chloro-2-fluorophenyl)methoxy]-5-fluoropyrimidin-4-yl}piperidin-1-yl)methyl]-5-[5-(trifluoromethyl)-4H-1,2,4-triazol-3-yl]pyridin-3-yl}methyl)cyclopropane-1-carbonitrile]
< 1 | N#CC1(Cc2cc(-c3nnc(C(F)(F)F)[nH]3)cnc2CN2CCC(c3cccc(OCc4ccc(Cl)c5ccoc45)n3)CC2)CC1 [Example 64, 1-((2-((4-(6-((4-chlorobenzofuran-7-yl)methoxy)pyridin-2-yl)piperidin-1-yl)methyl)-5-(5-(trifluoromethyl)-4H-1,2,4-triazol-3-yl)pyridin-3-yl)methyl)cyclopropane-1-carbonitrile]
< 1 | CC1(c2ccc(Cl)cc2F)Oc2cc(F)cc(C3CCN(Cc4ncc(-c5nnc(C(F)(F)F)[nH]5)cc4CC4(C#N)CC4)CC3)c2O1 (single isomer, unassigned) [Example 13, 1-{[2-({4-[2-(4-chloro-2-fluorophenyl)-6-fluoro-2-methyl-2H-1,3-benzodioxol-4-yl]piperidin-1-yl}methyl)-5-[5-(trifluoromethyl)-4H-1,2,4-triazol-3-yl]pyridin-3-yl]methyl}cyclopropane-1-carbonitrile]
1 to 100 | N#CC1(Cc2cc(-c3noc(=O)[nH]3)cnc2CN2CCC(c3cccc(OCc4ccc(Cl)cc4F)n3)CC2)CC1 [Example 82]
